The text below walks through data of patent US20150335637A1, “COMPOSITIONS AND METHODS FOR TREATING CUTANEOUS T CELL LYMPHOMA” (THE TRUSTEES OF THE UNIVERSITY OF PENNSYLVANIA, priority 2013, published 2015).

Molecules are shown by their SMILES.

This assay concerns cutaneous T-cell lymphoma (CTCL) lesions. Description: Phase I open label trial of resiquimod gel, clinical response of skin lesions. The class given is in vivo, human.

Procedure: The final trial design calls for a total of 16-20 patients, with the first half cohort treated topically with 0.06% gel and the second half cohort treated topically with 0.03% gel.
According to the study design, treatment of only four to five target lesions is permitted for eight weeks; followed by four weeks of rest and another eight weeks of therapy. Final evaluation is conducted after four weeks off of therapy.

As for `CCOCc1nc2c(N)nc3ccccc3c2n1CC(C)(C)O` [resiquimod, 4-amino-α,α-dimethyl-2-ethoxymethyl-1H-imidazo[4,5-c]quinolin-1-ethanol], the “skin lesions of one patient (FIG. 1)” value (patient refractory to previous treatments, before application vs end of week 8) is “clears the treated lesions and induces resolution of distant lesions”. Also, for the setting “refractory early stage CTCL patients”, the “clinical response rates for treated and untreated lesions” value is “high clinical response rates of both treated as well as distant, non-treated lesions”.
